From patent US10919941B2, “Functional lipid constructs” (KODE BIOTECH LIMITED, priority 2007, dated 2021)
No end group written: not given here.

What was measured:
Format in all cases: cell-based, human
[1] = test system: Miltenberger antibody positive sera; assay: BioVue AHG card column agglutination serology of modified red blood cells; design: key: 0 or ‘−’ no agglutination; 0 or ‘−’ no agglutination; 1+ or 3=very weak agglutination; 1+ or 3=very weak agglutination; 2+ or 5=weak agglutination; 2+ or 5=weak agglutination; 3+ or 8=moderate strong agglutination; 3+ or 8=moderate strong agglutination; 4+ or 10/12=strong agglutination; 4+ or 10/12=strong agglutination; 4+ or 10/12=strong agglutination; conditions: construct 50 μg/ml
Protocol: (§1) Red blood cells are modified by mixing 1 part by volume of washed packed red blood cells with 1 part by volume of peptide-lipid construct dispersed at a concentration of 10 to 1000 pg/ml in cell media (Celpresol™).
(§2) The suspensions are either: • 1. incubated for 2 hours at 37° C. before being washed and suspended in a cell medium for serological analysis at a concentration of 0.8 to 3% (Method 1); or • 2. incubated for 3 to 4 hours at room temperature (circa 25° C.) followed by 18 hours at 4° C. before being washed and suspended in a cell medium for serological analysis at a concentration of 0.8 to 3% (Method 2).
(§3) Serological reactions are graded or scored by either of two established systems (0 or ‘−’ no agglutination, 1+ or 3=very weak agglutination, 2+ or 5=weak agglutination, 3+ or 8=moderate strong agglutination, 4+ or 10/12=strong agglutination)
(§4) Serological platforms used are Tube (addition of reagents and reactants into plastic or glass serology tubes and after appropriate incubations, washing and centrifugation observing reactions macroscopically by eye and a 10× magnification eyepiece and scoring) and BioVue™ (addition of reactants into cassettes containing beads (including some reactants) and after appropriate incubations and centrifugation observing the reaction patterns trapped within the Gel matrix). BioVue is the serological column agglutination platform of Ortho-Clinical Diagnostics. Diamed is the serological column agglutination platform of Diamed AG.

[2] = test system: antibody negative serums; assay: False positive reactions of modified RBCs with antibody negative serums/plasma; design: key to Reaction score BioVue AHG, PAC samples 1-46, 49, 50, 52, 53 / Reaction score BioVue AHG, PAC sample 47 / Reaction score BioVue AHG, PAC sample 48 / Reaction score BioVue AHG, PAC sample 51 / agglutination score, T series serum 2 / agglutination score, T series serum 42 / agglutination score, T series serum 63 / agglutination score, T series serum 62 / agglutination score, T series serum 7 / agglutination score, T series serum 20 / agglutination score, T series serum 48 / agglutination score, T series serum 22 / agglutination score, T series serum 39 / agglutination score, T series serum 23 / agglutination score, T series serum 30 / agglutination score, T series serum 4 / agglutination score, T series serum 31 / agglutination score, T series serum 44 / agglutination score, T series serum 61 / agglutination score, T series serum 18 / agglutination score, T series serum 21 / agglutination score, T series serum 28 / agglutination score, T series serum 55 / agglutination score, false positive serum T18 / agglutination score, false positive serum T21 / agglutination score, false positive serum T28 / agglutination score, false positive serum T55 / agglutination score, false positive serum T78 / agglutination score, false positive serum T92: 0 or ‘−’ no agglutination; 0 or ‘−’ no agglutination; 1+ or 3=very weak agglutination; 1+ or 3=very weak agglutination; 2+ or 5=weak agglutination; 2+ or 5=weak agglutination; 3+ or 8=moderate strong agglutination; 3+ or 8=moderate strong agglutination; 4+ or 10/12=strong agglutination; 4+ or 10/12=strong agglutination; 4+ or 10/12=strong agglutination
[3] = test system: sera reactive with modified RBCs; assay: Neutralisation of reactive sera with free peptide, retested against modified RBCs (BioVue); design: key: 0 or ‘−’ no agglutination; 0 or ‘−’ no agglutination; 1+ or 3=very weak agglutination; 1+ or 3=very weak agglutination; 2+ or 5=weak agglutination; 2+ or 5=weak agglutination; 3+ or 8=moderate strong agglutination; 3+ or 8=moderate strong agglutination; 4+ or 10/12=strong agglutination; 4+ or 10/12=strong agglutination; 4+ or 10/12=strong agglutination
Text: Optionally, where F is a peptide, the method includes the preliminary step of: • Adding an amount of the peptide to the sample of the serum; where the amount of the peptide is sufficient to neutralize non-specific agglutination or confirm specificity of the reactive antibody.

[4] = test system: Miltenberger Antibody Positive Panel; assay: Reactivity of modified RBCs against the Miltenberger Antibody Positive Panel; design: key to score vs panel 15 TAP2 / score vs panel 4 T7202 / score vs panel 8 T5896 / score vs panel 2 T217 / score vs panel 3 T165 / score vs panel 14 TAP1 / score vs panel 10 Mia / score vs panel 11 Mur / score vs panel 12 Gam / score vs panel 6 T6025 / score vs panel 7 T8445 / score vs panel 9 MIII / score vs panel 13 BoxH / reactivity with Panel Serum #7 (T8445) / agglutination score, Panel Serum #7 (T8445): 0 or ‘−’ no agglutination; 0 or ‘−’ no agglutination; 1+ or 3=very weak agglutination; 1+ or 3=very weak agglutination; 2+ or 5=weak agglutination; 2+ or 5=weak agglutination; 3+ or 8=moderate strong agglutination; 3+ or 8=moderate strong agglutination; 4+ or 10/12=strong agglutination; 4+ or 10/12=strong agglutination; 4+ or 10/12=strong agglutination
Protocol: as §1, §2, §3, §4

[5] = blood donor plasma, construct 50 μg/ml (2 hours, 37° C.)
[6] = cells modified at 500 μg/ml (Method 1), BioVue cards
[7] = serum neutralised with peptide SSQTNDKHKRDTY (10 μL of 1 mg/ml to 50 μL, 30 minutes 37° C.), BioVue cards
[8] = cells modified at 50 μg/ml, 2 hour 37° C., BioVue AHG cards
[9] = 40 μl plasma + 10 μl neutraliser 1.0 mg/ml, 30 minutes 37° C., head: cells modified with the peptide-lipid construct M22 (title: M28)

M40: DOPE peptide-lipid construct: Hil peptide EEETGETGQL, leader c, spacer CMG(2) (EEETGETGQLC; also: DOPE peptide-lipid construct via leader Cys, spacer CMG(2))
BioVue score vs TAP1 [1]: 0 | BioVue score vs positive sample 2 T217 (T) [1]: 0 | BioVue score vs positive sample 3 T165 (Mur) [1]: 0 | BioVue score vs positive sample 4 T7202 (M) [1]: 0 | BioVue score vs positive sample 8 T5896 (M + K + Mur) [1]: 0 | Reaction score BioVue AHG, PAC sample 47 [2, 5]: 0 | Reaction score BioVue AHG, PAC sample 48 [2, 5]: 0 | Reaction score BioVue AHG, PAC sample 51 [2, 5]: 0 | Reaction score BioVue AHG, PAC samples 1-46, 49, 50, 52, 53 [2, 5]: 0 | % False Positives ([2]; panel of blood donor plasma samples (PAC), BioVue AHG, construct 50 μg/ml): 0%

M13: DOPE peptide-lipid construct: MUTK peptide SSQTNDKHKRDTY, leader c (Cys), spacer PEG6 (SSQTNDKHKRDTYC; also: DOPE peptide-lipid construct via leader Cys, spacer PEG6)
agglutination score, serum #3, serum alone [3, 6]: 8 | agglutination score, serum #34, serum alone [3, 6]: 8 | agglutination score, serum #37, serum alone [3, 6]: 8 | agglutination score, serum #42, serum alone [3, 6]: 8 | agglutination score, serum #3, serum + peptide [3, 7]: 0 | agglutination score, serum #34, serum + peptide [3, 7]: 0 | agglutination score, serum #37, serum + peptide [3, 7]: 0 | agglutination score, serum #42, serum + peptide [3, 7]: 0 | score vs panel 2 T217 ([4]; Table 8, construct 250 μg/ml): 8 | score vs panel 3 T165 ([4]; Table 8, construct 250 μg/ml): 0 | score vs panel 4 T7202 ([4]; Table 8, construct 250 μg/ml): 8 | score vs panel 6 T6025 ([4]; Table 8, construct 250 μg/ml): 8 | score vs panel 7 T8445 ([4]; Table 8, construct 250 μg/ml): 0 | score vs panel 8 T5896 ([4]; Table 8, construct 250 μg/ml): 3 | score vs panel 9 MIII ([4]; Table 8, construct 250 μg/ml): 0 | score vs panel 10 Mia ([4]; Table 8, construct 250 μg/ml): 0 | score vs panel 11 Mur ([4]; Table 8, construct 250 μg/ml): 0 | score vs panel 12 Gam ([4]; Table 8, construct 250 μg/ml): 0 | score vs panel 13 BoxH ([4]; Table 8, construct 250 μg/ml): 8

M30: DOPE peptide-lipid construct: Mur peptide DTYPAHTANE, leader c, spacer CMG(2) (DTYPAHTANEC; also: DOPE peptide-lipid construct via leader Cys, spacer CMG(2))
score vs panel 2 T217 ([4]; Table 9, construct 50 μg/ml): 0 | score vs panel 4 T7202 ([4]; Table 9, construct 50 μg/ml): 10 | score vs panel 7 T8445 ([4]; Table 9, construct 50 μg/ml): 8 | score vs panel 8 T5896 ([4]; Table 9, construct 50 μg/ml): 0 | score vs panel 15 TAP2 ([4]; Table 9, construct 50 μg/ml): 8 | agglutination score, Panel Serum #7 (T8445) [4, 8]: 8 | reactivity with Panel Serum #7 (T8445) ([4]; construct 50 μg/ml (2 hours, 37° C.)): 8 | % positive ([2]; T series reactives (n = 58), BioVue AHG cards): 9% | agglutination score, T series serum 2 [2, 8]: 10 | agglutination score, T series serum 4 [2, 8]: 8 | agglutination score, T series serum 7 [2, 8]: 0 | agglutination score, T series serum 18 [2, 8]: 0 | agglutination score, T series serum 20 [2, 8]: 0 | agglutination score, T series serum 21 [2, 8]: 0 | agglutination score, T series serum 22 [2, 8]: 0 | agglutination score, T series serum 23 [2, 8]: 0 | agglutination score, T series serum 28 [2, 8]: 0 | agglutination score, T series serum 30 [2, 8]: 0 | agglutination score, T series serum 31 [2, 8]: 8 | agglutination score, T series serum 39 [2, 8]: 0 | agglutination score, T series serum 42 [2, 8]: 0 | agglutination score, T series serum 44 [2, 8]: 10 | agglutination score, T series serum 48 [2, 8]: 0 | agglutination score, T series serum 55 [2, 8]: 0 | agglutination score, T series serum 61 [2, 8]: 10 | agglutination score, T series serum 62 [2, 8]: 0 | agglutination score, T series serum 63 [2, 8]: 0

M22 peptide (SQTNDKHKRDC)
Post-neutralisation serology, PAC74 ([3]; 40 μl plasma + 10 μl neutraliser 1.0 mg/ml, 30 minutes 37° C., cells modified with M22): 8 | Post-neutralisation serology, PAC70 [3, 9]: 8 | Post-neutralisation serology, TAP2 [3, 9]: 3
